# From patent publication US20220054398A1, “USE OF RUBUS FRUTICOSUS EXTRACT FOR MANUFACTURING A SKINCARE COMPOSITION” (TCI CO., LTD., priority 2020, published 2022)
# System: Mouse melanoma cell B16F10
# Experiment: Melanin production after blue light exposure, OD450
# Format: cell-based
# Conditions: B16F10 cells, 0.25 mg/mL 24 hours, blue light 3 hours, then 48 hours
# Method: The changes in melanin content of melanoma cell line B16F10 after being treated with Rubus fruticosus extract are determined by an ELISA reader (enzyme-linked immunosorbent assay reader). Materials and Instruments: • 1. Cell line: Mouse melanoma cell B16F10, purchased from American Type Culture Collection (ATCC®, No. 6475), hereinafter referred to as B16F10 cells. • 2. Medium: Dulbecco's modified […] (DMEM, purchased from Gibco, Cat. 12100-038) is supplemented with additional ingredients to contain 1 vol % antibiotic solution (Antibiotic Antimycotic Solution, purchased from Gibco, 15240-062) and 10 vol % FBS (fetal bovine Serum, purchased from Gibco, 10437-028). Gibco, 15240-062). • 3. Phosphate Buffer Solution (PBS solution): purchased from Gibco, Product No. […]. • 4. Prepare a solution of 1N NaOH (Sigma, Product No. 221465) in secondary distilled water. • 5. ELISA reader (purchased from BioTek, product number FLx 800). • 6. […] Transfer 100 μL of the sample to be tested into a 96-well plate and measure the absorbance value of the cell solution at 450 nm using an ELISA reader. The relative melanin expressions of the experimental and control groups are calculated according to the following formula: Relative melanin expression (%)=(OD 450 value of each group/OD450 value of the control group)×100%.
smiles,measurement,value
"O=c1cc(CO)occ1O [kojic acid, Kojic acid]",melanin production compared with the control group,67.42%
